Experiments:
children with autism [1] = assay: 12-week placebo-controlled study of NAC: Social Responsiveness Scale (SRS); type: in vivo, human
Text: The Social Responsiveness Scale (SRS) (Constantino, J. et al., J Dev Behav Pediatr, 21:2-11 (2000); Constantino, J. et al., J Autism Dev Disord., 3:427-433 (2003)) is a norm-referenced, 65-item parent report questionnaire developed to measure social behaviors, including social awareness, social information processing, reciprocal social communication, and social anxiety, in both clinical and non-clinical populations. It is designed for use with children ages 4 through 18, and more recently, a special version of the SRS has been developed for preschoolers (Pine, E. et al., Autism, 10:344-352 (2006)). The SRS items measure the Autistic Spectrum Disorder (ASD) symptoms in the domains of social awareness, social information processing, reciprocal social communication, social anxiety/avoidance, and stereotypic behavior/restricted interests. Each item is scored from 1 (not true) to 4 (almost always true). Scores are obtained for five treatment subscales: Social Awareness (e.g., “Is aware of what others are thinking or feeling”), Social Cognition (e.g., “Doesn't recognize when others are trying to take advantage of him or her”), Social Communication (e.g., “Avoids eye contact or has unusual eye contact”), Social Motivation (e.g., “Would rather be alone than with others”), and Autistic Mannerisms (e.g., “Has an unusually narrow range of interests”). The SRS summary score was continuously distributed within each group and minimally correlated with Intelligent Quotient (IQ). High scores indicate more severe behavioral symptoms.
(§1) A 12-week, double-blind randomized, placebo-controlled study of NAC in children with autism was conducted in the Autism & Developmental Disabilities Clinic in the Division of Child & Adolescent Psychiatry at Stanford University Medical Center. The recruitment period started in March 2009 and ended in September 2010. Subjects with and without mental retardation were included. After obtaining informed consent, subjects were screened and inclusion and exclusion criteria were assessed. No changes in eligibility criteria were applied throughout the study. This investigation was approved by the institutional review board at Stanford University School of Medicine. An investigational new drug application (IND#100905) was filed with the Food and Drug Administration, and the study was registered in National Institutes of Health at ClinicalTrials.gov (identifier number NCT00627705).
After the screening phase, baseline measures were obtained from subjects continuing to meet inclusion and exclusion criteria. Subjects were then randomized to either placebo or active based on age and gender. As NAC is a nutritional supplement, the quality control is predictably variable and therefore purity is not as stringent as prescription medications. Therefore, in the present study, the stability of the compound was ascertained and the integrity of the active agent was protected by packaging each NAC doses in individual pockets. The active compound and matching placebo were provided by BioAdvantex Pharma, Inc. (Mississauga, Ontario, Canada). […] Subjects randomized to the active drug were initiated at the dose of 900 mg every day for the first 4 weeks, then 900 mg twice daily for 4 weeks and 900 mg three times daily for 4 weeks. (This dose selection was based on previously published studies for other psychiatric conditions (Grant, J. et al., Arch Gen Psychiatry, 66:468-475 (2009); Berk, M. et al., Biol Psychiatry, 64:361-368 (2008); Berk, M. et al., Bio Psychiatry, 64:468-475 (2008)) and the previous experience of our group in studies of children with cystic fibrosis). Alternatively, subjects were initiated at the dose of 900 mg per day, 1,800 mg per day, or 2,700 mg per day of NAC. Alternatively, the subjects were initiated at the dose ranging from 900 mg per day to 2,700 mg per day of NAC.
If a subject could not tolerate a specific dose, s/he would be maintained at the highest tolerated dose. […]

[2] = Noszal et al. 2000; cited from earlier work
[3] = cited from earlier work
children with autism [4] = assay: 12-week placebo-controlled study of NAC: Repetitive Behavior Scale-Revised (RBS-R); type: in vivo, human
Text: The Repetitive Behavior Scale-Revised (RBS-R) (Bodfish et al., The Repetitive Behavior Scale: A test manual (1998)) is an empirically derived clinical rating scale for measuring the presence and severity of a variety of forms of restricted, repetitive behavior that are characteristic of individuals with autism. The RBS-R consists of 6 subscales: stereotyped behavior, self-injurious behavior, compulsive behavior, routine behavior, sameness behavior, and restricted behavior. The scale provides an overall raw score for severity of repetitive behaviors and separate measures of severity for each subtype of repetitive behavior. High scores indicate more severe behavioral symptoms.
as §1
After the screening phase, baseline measures were obtained from subjects continuing to meet inclusion and exclusion criteria. Subjects were then randomized to either placebo or active based on age and gender. As NAC is a nutritional supplement, the quality control is predictably variable and therefore purity is not as stringent as prescription medications. Therefore, in the present study, the stability of the compound was ascertained and the integrity of the active agent was protected by packaging each NAC doses in individual pockets. The active compound and matching placebo were provided by BioAdvantex Pharma, Inc. (Mississauga, Ontario, Canada). […] Subjects randomized to the active drug were initiated at the dose of 900 mg every day for the first 4 weeks, then 900 mg twice daily for 4 weeks and 900 mg three times daily for 4 weeks. […]
If a subject could not tolerate a specific dose, s/he would be maintained at the highest tolerated dose. Subjects were evaluated at baseline, week 4, week 8 and week 12. […]

[5] = Baseline (before treatment), NAC group n = 15
[6] = standardized mean difference NAC vs placebo at Week 12

Structure (SMILES): CC(=O)N[C@@H](CS)C(=O)O [NAC, N-acetylcysteine]
- SRS total, Mean (SD) (children with autism [1]; [5]): 111.9 (28.3)
- SRS total, Mean (SD) (children with autism [1]; Week 12, NAC n = 14): 93.8 (26.7)
- SRS-Total raw scores, treatment effect (children with autism [1]; all randomized participants, NAC vs placebo, p=0.141): did not significantly influence
- SRS-Social Cognition sub-scale, treatment effect (children with autism [1]; all randomized participants, p=0.037, said to appear due to regression to the mean): significant improvements
- SRS-Autism Mannerisms sub-scale, treatment effect (children with autism [1]; all randomized participants, p=0.045): significant improvements
- any other SRS subscale, treatment effect (children with autism [1]; all randomized participants, p>0.100): no significant treatment effects
- SRS-Total scores, treatment effect (children with autism [1]; participants who completed the study (NAC N=13, placebo N=12), p=0.039): significantly improved
- SRS total, Cohen's d (children with autism [1]; [6]): .14
- half-cell potential of the NAC thiol/disulfide pair [2]: about +63 mV
- solubility relative to cystine ([3]; compared with the stable cysteine disulfide, cystine): much more soluble
- stability relative to cysteine ([3]; more stable than cysteine): about 10 times
- RBS total, Mean (SD) (children with autism [4]; [5]): 33.1 (16.2)
- RBS total, Mean (SD) (children with autism [4]; Week 12, NAC n = 14): 22.3 (12.0)
- RBS-Total, treatment effect (children with autism [4]; all randomized participants, NAC vs placebo, p=0.015): significant improvement
- RBS total, Cohen's d (children with autism [4]; [6]): .57
